The test system of data set [1] is PTEN. Kind of data set: Western blot of p-PTEN/total PTEN ratio in toxin-treated SH-SY5Y cells. The format is cell-based, human. As to the method:
(§1) SH-SY5Y cells were maintained in Dulbecco's modified medium (DMEM) supplemented with 10% FBS, 100 IU/mL penicillin and […] streptomycin at 37 °C under 5% CO2. Toxins (Sigma) were freshly prepared and added to the cultures and incubated for various lengths of time.
(§2) Blots were incubated with antibodies against PTEN, Phospho-PTEN, and Caspase-3 (Cell Signaling) followed by secondary antibodies and enhanced chemiluminescent detection (Amersham Biosciences).
PTEN and phosphorylated PTEN (p-PTEN) were determined by using western blot analysis. FIG. 6C show PTEN activity was determined by comparing the ratio of p-PTEN/total PTEN. A decrease in p-PTEN/total PTEN is correlated with higher PTEN activity. Results were analyzed by Image J software and p-PTEN/total PTEN results were shown graphically. […] Substantia nigra pars compacta were dissected and harvested for western blot analysis as previously described.

The subject of data set [2] is human neuroblastoma SH-SY5Y. Kind of data set: Cell viability, CellTiter 96 Aqueous One Solution Cell Proliferation Assay. The format is cell-based. As to the method: as §1
To measure cell viability and apoptosis CellTiter 96 Aqueous One Solution Cell Proliferation Assay (Promega) and propidium iodide (Sigma) were used, respectively.

Data set [3] relates to Caspase-3. Kind of data set: Western blot of Caspase-3 active metabolite in SH-SY5Y cells. The format is cell-based, human. Particulars: high (mM) doses of MPP+, 24 hrs. As to the method:
as §1, §2
On the technique in general: A western blot detects proteins with antibodies after separation by electrophoresis.

Data set [4] has as its system PINK1 promoter. Kind of data set: PINK1 promoter analysis, Dual Glo Luciferase Assay in transfected HEK293 cells. Type of data set: cell-based, human. Particulars: promoter alone vs no promoter (pGL2-basic) or SV40 promoter (pGL2-control); HEK293, 48 hrs; p<0.05. As to the method:
HEK293 cells were transfected with PINK1pr2220 and various controls for 48 hrs. Promoter activity was determined using Dual Glo Luciferase Assay system (Promega) and normalized against renilla luciferase.
In FIG. 3(A) the results are represented as the level of firefly luciferase activity driven by the PINK1 promoter normalized against renilla luciferase activity from a second plasmid used to control for transfection variability. Each experiment was replicated in triplicate, and the entire study was replicated on at least two separate occasions. […] Co-transfection with PTEN induced PINK1 promoter activity from 65% to 5 fold in various replicate experiments compared with PINK1 alone (**p<0.05; two-tailed t-test), while a PTEN point-mutant which lacks lipid phosphatase activity (1 mPTEN) had no effect.
Data is the result of triplicate experiments analyzed relative to promoter activity of PINK1pr2220 alone (*p<0.05; two-tailed t-test).
All plasmids were kept at constant amounts and ratios, with empty plasmid replacing constructs not used for individual studies. Data is the result of triplicate experiments analyzed relative to promoter activity of PINK1pr2220 alone (*p<0.05; two-tailed t-test).

As for `NCCc1cc(O)c(O)cc1O` [6-OHDA, 6-hydroxydopamine], the “p-PTEN/total PTEN ratio” value in data set [1] (n=4) is reported as “lower p-PTEN/total PTEN ratio”. Besides, the cell viability entry in data set [2] (6-OHDA) is recorded as “reduced cell viability”.

`C[n+]1ccc(-c2ccccc2)cc1` [MPP+]: the “p-PTEN/total PTEN ratio” value is “No change” in data set [1] (24 hrs, escalating high doses of MPP+ (mM)) and “reduction” in data set [1] (low dose MPP+ (100 μM), various time points). The cell viability result in data set [2] (MPP+ 24 hr treatment) was “reduced cell viability”. Also, the “cleavage of Caspase-3 active metabolites” value in data set [3] is given as “not cleaved”.

On to “PINK1 promoter: 2220bp human DNA sequence upstream of the PINK1 transcriptional start site, driving firefly luciferase”, for which the “PINK1 promoter activity (firefly luciferase normalized against renilla luciferase)” value in data set [4] is “significant promoter activity”.

The values above are taken from patent US20060228776A1, “PINK-1 promoter” (NEUROLOGIX, INC., priority 2004, published 2006).
